# Data: PMC9276671, “A first-in-human Phase I dose-escalation trial of the novel therapeutic peptide, ALM201, demonstrates a favourable safety profile in unselected patients with ovarian cancer and other advanced solid tumours” (British Journal of Cancer, 2022)
# No end group written: not given here.
# Test: Plasma pharmacokinetics of ALM201 in Phase I patients (validated LC-MS/MS, Phoenix WinNonlin)
# Conditions: human, plasma, sc; for Tmax: median; for Tmax / AUC(0-t) / Cmax: plasma LC-MS/MS; for AUC(0-t): AUC0-t; for AUC(0-t) / Cmax: Gmean (CV); for level at 0.25 h / level at 0.75 h / level at 1.5 h / level at 2 h / level at 3 h / level at 4 h / level at 5 h / level at 6 h / level at 0.5 h / level at 1 h / level at 3.5 h: Plasma concentration, geometric mean (CV%), LC-MS/MS; for level at 0.25 h: day 1 cycle 1, 0.25 h after dosing; for level at 0.75 h: day 1 cycle 1, 0.75 h after dosing; for level at 3 h: day 1 cycle 1, 3 h after dosing; for level at 4 h: day 1 cycle 1, 4 h after dosing; for level at 6 h: day 1 cycle 1, 6 h after dosing
# [1] = 100 mg, 100 mg SC, day 1 cycle 1, n = 4
# [2] = 100 mg, 100 mg SC, day 3 cycle 1, n = 4
# [3] = 100 mg, 100 mg SC, day 18 cycle 1, n = 2, CV not calculated
# [4] = 100 mg, 100 mg SC, day 18 cycle 2, n = 1
# [5] = 160 mg, 160 mg SC, day 1 cycle 1, n = 3
# [6] = 160 mg, 160 mg SC, day 3 cycle 1, n = 3
# [7] = 160 mg, 160 mg SC, day 18 cycle 1, n = 3
# [8] = 160 mg, 160 mg SC, day 18 cycle 2, n = 1
# [9] = 200 mg, 200 mg SC, day 1 cycle 1, n = 4
# [10] = 200 mg, 200 mg SC, day 3 cycle 1, n = 4
# [11] = 200 mg, 200 mg SC, day 18 cycle 1, n = 3
# [12] = 200 mg, 200 mg SC, day 18 cycle 4, n = 2, CV not calculated
sequence,measurement,setting,value
IRQQPRDPPTETLELEVSPDPAS [ALM201],Tmax,"80 mg, 80 mg SC, day 18 cycle 2, n = 1",3.5 h
same,AUC(0-t),[1],6280 ng·h/mL
same,AUC(0-t),[2],8870 ng·h/mL
same,AUC(0-t),[3],8100 ng·h/mL
same,AUC(0-t),[4],5930 ng·h/mL
same,Cmax,[1],1810 ng/mL
same,Cmax,[2],2750 ng/mL
same,Cmax,[3],2330 ng/mL
same,Cmax,[4],1790 ng/mL
same,level at 0.25 h,"100 mg, 100 mg SC, n = 4",492 ng/mL
same,level at 0.75 h,"100 mg, 100 mg SC, n = 4",1220 ng/mL
same,level at 1.5 h,"100 mg, 100 mg SC, day 1 cycle 1, 1.5 h after dosing, n = 4",1810 ng/mL
same,level at 2 h,"100 mg, 100 mg SC, day 1 cycle 1, 2 h after dosing, n = 4",1590 ng/mL
same,level at 3 h,"100 mg, 100 mg SC, n = 4",1150 ng/mL
same,level at 4 h,"100 mg, 100 mg SC, n = 4",922 ng/mL
same,level at 5 h,"100 mg, 100 mg SC, day 1 cycle 1, 5 h after dosing, n = 4, NQ value substituted with 100 ng/mL",664 ng/mL
same,level at 6 h,"100 mg, 100 mg SC, n = 4, NQ value substituted with 100 ng/mL",560 ng/mL
same,level at 0.5 h,"100 mg, 100 mg SC, day 3 cycle 1, 0.5 h after dosing, n = 4",1730 ng/mL
same,level at 1 h,"100 mg, 100 mg SC, day 3 cycle 1, 1 h after dosing, n = 4",2100 ng/mL
same,level at 1.5 h,"100 mg, 100 mg SC, day 3 cycle 1, 1.5 h after dosing, n = 4",2530 ng/mL
same,level at 2 h,"100 mg, 100 mg SC, day 3 cycle 1, 2 h after dosing, n = 4",2400 ng/mL
same,level at 3.5 h,"100 mg, 100 mg SC, day 3 cycle 1, 3.5 h after dosing, n = 4",1690 ng/mL
same,level at 5 h,"100 mg, 100 mg SC, day 3 cycle 1, 5 h after dosing, n = 4",928 ng/mL
same,level at 0.5 h,"100 mg, 100 mg SC, day 18 cycle 1, 0.5 h after dosing, n = 2",1890 ng/mL
same,level at 1 h,"100 mg, 100 mg SC, day 18 cycle 1, 1 h after dosing, n = 2",1840 ng/mL
same,level at 1.5 h,"100 mg, 100 mg SC, day 18 cycle 1, 1.5 h after dosing, n = 2",2210 ng/mL
same,level at 2 h,"100 mg, 100 mg SC, day 18 cycle 1, 2 h after dosing, n = 2",2130 ng/mL
same,level at 3.5 h,"100 mg, 100 mg SC, day 18 cycle 1, 3.5 h after dosing, n = 2",1490 ng/mL
same,level at 5 h,"100 mg, 100 mg SC, day 18 cycle 1, 5 h after dosing, n = 2",961 ng/mL
same,level at 0.5 h,"100 mg, 100 mg SC, day 18 cycle 2, 0.5 h after dosing, n = 1",1060 ng/mL
same,level at 1 h,"100 mg, 100 mg SC, day 18 cycle 2, 1 h after dosing, n = 1",1790 ng/mL
same,level at 1.5 h,"100 mg, 100 mg SC, day 18 cycle 2, 1.5 h after dosing, n = 1",1710 ng/mL
same,level at 2 h,"100 mg, 100 mg SC, day 18 cycle 2, 2 h after dosing, n = 1",1570 ng/mL
same,level at 3.5 h,"100 mg, 100 mg SC, day 18 cycle 2, 3.5 h after dosing, n = 1",1180 ng/mL
same,Tmax,[1],1.5 h
same,Tmax,[2],1.61 h
same,Tmax,"100 mg, 100 mg SC, day 18 cycle 1, n = 2",1.9 h
same,Tmax,[4],1.02 h
same,AUC(0-t),[5],6510 ng·h/mL
same,AUC(0-t),[6],5100 ng·h/mL
same,AUC(0-t),[7],4930 ng·h/mL
same,AUC(0-t),[8],5710 ng·h/mL
same,Cmax,[5],1990 ng/mL
same,Cmax,[6],1490 ng/mL
same,Cmax,[7],1350 ng/mL
same,Cmax,[8],1870 ng/mL
same,level at 0.25 h,"160 mg, 160 mg SC, n = 3",833 ng/mL
same,level at 0.75 h,"160 mg, 160 mg SC, n = 3",1570 ng/mL
same,level at 1.5 h,"160 mg, 160 mg SC, day 1 cycle 1, 1.5 h after dosing, n = 3",1670 ng/mL
same,level at 2 h,"160 mg, 160 mg SC, day 1 cycle 1, 2 h after dosing, n = 3",1480 ng/mL
same,level at 3 h,"160 mg, 160 mg SC, n = 3",1280 ng/mL
same,level at 4 h,"160 mg, 160 mg SC, n = 3",866 ng/mL
same,level at 5 h,"160 mg, 160 mg SC, day 1 cycle 1, 5 h after dosing, n = 3",510 ng/mL
same,level at 6 h,"160 mg, 160 mg SC, n = 3",283 ng/mL
same,level at 0.5 h,"160 mg, 160 mg SC, day 3 cycle 1, 0.5 h after dosing, n = 3",956 ng/mL
same,level at 1 h,"160 mg, 160 mg SC, day 3 cycle 1, 1 h after dosing, n = 3",1270 ng/mL
same,level at 1.5 h,"160 mg, 160 mg SC, day 3 cycle 1, 1.5 h after dosing, n = 3",1460 ng/mL
same,level at 2 h,"160 mg, 160 mg SC, day 3 cycle 1, 2 h after dosing, n = 3",1350 ng/mL
same,level at 3.5 h,"160 mg, 160 mg SC, day 3 cycle 1, 3.5 h after dosing, n = 3",926 ng/mL
same,level at 5 h,"160 mg, 160 mg SC, day 3 cycle 1, 5 h after dosing, n = 3",613 ng/mL
same,level at 0.5 h,"160 mg, 160 mg SC, day 18 cycle 1, 0.5 h after dosing, n = 3",940 ng/mL
same,level at 1 h,"160 mg, 160 mg SC, day 18 cycle 1, 1 h after dosing, n = 3",1150 ng/mL
same,level at 1.5 h,"160 mg, 160 mg SC, day 18 cycle 1, 1.5 h after dosing, n = 3",1280 ng/mL
same,level at 2 h,"160 mg, 160 mg SC, day 18 cycle 1, 2 h after dosing, n = 3",1200 ng/mL
same,level at 3.5 h,"160 mg, 160 mg SC, day 18 cycle 1, 3.5 h after dosing, n = 3",995 ng/mL
same,level at 5 h,"160 mg, 160 mg SC, day 18 cycle 1, 5 h after dosing, n = 3",577 ng/mL
same,level at 0.5 h,"160 mg, 160 mg SC, day 18 cycle 2, 0.5 h after dosing, n = 1",1380 ng/mL
same,level at 1 h,"160 mg, 160 mg SC, day 18 cycle 2, 1 h after dosing, n = 1",1380 ng/mL
same,level at 1.5 h,"160 mg, 160 mg SC, day 18 cycle 2, 1.5 h after dosing, n = 1",1650 ng/mL
same,level at 2 h,"160 mg, 160 mg SC, day 18 cycle 2, 2 h after dosing, n = 1",1870 ng/mL
same,level at 3.5 h,"160 mg, 160 mg SC, day 18 cycle 2, 3.5 h after dosing, n = 1",870 ng/mL
same,Tmax,[5],1.52 h
same,Tmax,[8],2 h
same,AUC(0-t),[9],5860 ng·h/mL
same,AUC(0-t),[10],6630 ng·h/mL
same,AUC(0-t),[11],5570 ng·h/mL
same,AUC(0-t),[12],6110 ng·h/mL
same,Cmax,[9],1490 ng/mL
same,Cmax,[10],1620 ng/mL
same,Cmax,[11],1670 ng/mL
same,Cmax,"200 mg, 200 mg SC, day 18 cycle 2, n = 2, CV not calculated",1890 ng/mL
same,Cmax,[12],1680 ng/mL
same,level at 0.25 h,"200 mg, 200 mg SC, n = 4",479 ng/mL
same,level at 0.75 h,"200 mg, 200 mg SC, n = 4",1040 ng/mL
same,level at 1.5 h,"200 mg, 200 mg SC, day 1 cycle 1, 1.5 h after dosing, n = 4",1240 ng/mL
same,level at 2 h,"200 mg, 200 mg SC, day 1 cycle 1, 2 h after dosing, n = 4",1370 ng/mL
same,level at 3 h,"200 mg, 200 mg SC, n = 4",1360 ng/mL
same,level at 4 h,"200 mg, 200 mg SC, n = 4",1050 ng/mL
same,level at 5 h,"200 mg, 200 mg SC, day 1 cycle 1, 5 h after dosing, n = 4",620 ng/mL
